This is an account of results in patent US6696470B2, “Pyridylthiophene compounds” (Pfizer Inc., priority 1997, dated 2004).

The melting point is the temperature, or range, at which the solid turns liquid. `Cc1c(-c2ccncc2)sc(-c2ccncc2)c1C=O` [Example 34, 2,5-Di(4-pyridyl)-4-methylthiophene-3-carbaldehyde] registered a melting point of 139 to 139.5 °C. Next, `CNC(=O)c1cc(-c2ccncc2)sc1-c1ccncc1` [Example 52, N-Methyl-{2,5-di(4-pyridyl)thiophen-3-yl}carboxamide]: 197 to 199 °C; `CC(=O)c1c(-c2ccncc2)sc(-c2ccncc2)c1C` [Example 15, 3-Acetyl-4-methyl-2,5-di(4-pyridyl)thiophene]: 137 to 138 °C. The result for `Cc1c(-c2ccncc2)sc(-c2ccncc2)c1C=NO.Cl.Cl` reads 258 to 261 °C (dec.).
